Our source for the activity values is patent US6277847A, “Herbicidal isoindolinonyl-and 3,4-dihydroisoquinolonyl-substituted heterocycles” (FMC Corporation, priority 2000, dated 2001).

Assay type in all cases: in vivo
The test system of assay [1] is common cocklebur (Xanthium strumarium L.). In words: post-emergence herbicidal activity, cocklebur. The following applies: 1 Kg/Ha, about fourteen days, read-out: post-emergence herbicidal activity (% control) XANPE. A digest of the protocol:
(§1)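 Seedlings were grown in soil flats to a suitable stage, then sprayed with test compound in water/acetone at 1 Kg/Ha. Treated plants were kept alongside untreated controls for about fourteen days and then scored for phytotoxicity as percent control, 0 being no effect and 100 complete control.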

In assay [2] the test system is wheat (Triticum aestivum var. Lew). The experiment in a line: pre-emergence herbicidal activity, wheat. Particulars: 1 kg/Ha, about fourteen days, read-out: pre-emergence herbicidal activity (% control) WHT. In a few lines: (§2)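 Seeds sown in soil flats and sprayed pre-emergence with a water/acetone solution of test compound at 1 kg/Ha; untreated controls kept alongside. Phytotoxicity scored after about fourteen days as percent control, 0 being no effect and 100 complete control.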

The subject of assay [3] is field corn (Zea mays var. Pioneer 3732). In words: post-emergence herbicidal activity, corn. The following applies: 1 Kg/Ha, about fourteen days, read-out: post-emergence herbicidal activity (% control) CRN. In a few lines:
as §1

The test system of assay [4] is common cocklebur (Xanthium strumarium L.). In words: pre-emergence herbicidal activity, cocklebur. The following applies: 1 kg/Ha, about fourteen days, read-out: pre-emergence herbicidal activity (% control) XANPE. In a few lines: as §2
In assay [5] the test system is green foxtail (Setaria viridis). In words: post-emergence herbicidal activity, green foxtail. Particulars: 1 Kg/Ha, about fourteen days, read-out: post-emergence herbicidal activity (% control) SETVI. A digest of the protocol:
as §1

Assay [6] relates to common chickweed (Stellaria media). The experiment in a line: pre-emergence herbicidal activity, chickweed. Particulars: 1 kg/Ha, about fourteen days, read-out: pre-emergence herbicidal activity (% control) STEME. In a few lines: as §2
The test system of assay [7] is field corn (Zea mays var. Pioneer 3732). In words: pre-emergence herbicidal activity, corn. Particulars: 1 kg/Ha, about fourteen days, read-out: pre-emergence herbicidal activity (% control) CRN. In a few lines: as §2
Assay [8] relates to morningglory (Ipomea lacunosa or Ipomea hederacea). In words: post-emergence herbicidal activity, morningglory. Particulars: Ipomoea, 1 Kg/Ha, about fourteen days, read-out: post-emergence herbicidal activity (% control) IPOSS. A digest of the protocol: as §1
The subject of assay [9] is wheat (Triticum aestivum var. Lew). In words: post-emergence herbicidal activity, wheat. The following applies: 1 Kg/Ha, about fourteen days, read-out: post-emergence herbicidal activity (% control) WHT. A digest of the protocol: as §1
Assay [10] deals with blackgrass (Aloepecurus myosuroides). The experiment in a line: post-emergence herbicidal activity, blackgrass. The following applies: Alopecurus myosuroides, 1 Kg/Ha, about fourteen days, read-out: post-emergence herbicidal activity (% control) ALOMY. The method, then:
(§3) This example sets forth the methods of herbicidal testing conducted on the specific compounds set forth below. Specifically, the compounds referenced below were tested for pre- and post-emergence herbicidal activity using a variety of crops and weeds. The test plants include, but are not limited to, soybean (Glycine max -- var. Winchester), field corn (Zea mays var. Pioneer 3732), wheat (Triticum aestivum var. Lew), morningglory (Ipomea lacunosa or Ipomea hederacea), velvetleaf (Abutilon theophrasti), green foxtail (Setaria viridis), Johnsongrass (Sorghum halepense), blackgrass (Aloepecurus myosuroides), common chickweed (Stellaria media), and common cocklebur (Xanthium strumarium L.).
(§4) In the post-emergence test, seeds of the plant species named above were planted in flats containing the appropriate soil mixture where they were maintained to allow the seeds to germinate. When the plants in these flats reached the proper stage of growth, flats for the pre-emergence tests were planted in a like manner. The flats containing the post-emergence and pre-emergence test plant species were then sprayed with an appropriately concentrated water/acetone solution of test compound. Once treated the flats were maintained, along with untreated controls, for about fourteen days. All treated plants were then examined for phytotoxicity, which was expressed as percent control where 0 is no effect and 100 is complete control. Effective rates of application for the compounds of the present invention range from 0.001 to 3 kg/ha, more likely from […] to 1 Kg/ha.
(§5) Herbicidal activity data at selected application rates are in Tables 4 and 5. The test compounds are identified by numbers correspond to those in Table 1.
(§6) SOY is soybean, WHT is wheat, CRN is corn, ABUTH is velvetleaf, IPOSS is
(§7) morningglory, STEME is chickweed, XANPE is cocklebur, ALOMY is blackgrass,
(§8) Rate of application of test compound is 1 Kg/Ha. The definitions as shown under Table 4 apply to Table 5.

Assay [11] relates to velvetleaf (Abutilon theophrasti). The experiment in a line: pre-emergence herbicidal activity, velvetleaf. The following applies: 1 kg/Ha, about fourteen days, read-out: pre-emergence herbicidal activity (% control) ABUTH. A digest of the protocol: as §2
Assay [12] deals with common chickweed (Stellaria media). The experiment in a line: post-emergence herbicidal activity, chickweed. Particulars: 1 Kg/Ha, about fourteen days, read-out: post-emergence herbicidal activity (% control) STEME. Here is the method:
as §3, §4, §5, §6, §7, §8

Assay [13] deals with green foxtail (Setaria viridis). In words: pre-emergence herbicidal activity, green foxtail. Particulars: 1 kg/Ha, about fourteen days, read-out: pre-emergence herbicidal activity (% control) SETVI. A digest of the protocol:
as §2

Assay [14] relates to blackgrass (Aloepecurus myosuroides). The experiment in a line: pre-emergence herbicidal activity, blackgrass. The following applies: Alopecurus myosuroides, 1 kg/Ha, about fourteen days, read-out: pre-emergence herbicidal activity (% control) ALOMY. A digest of the protocol: as §2
Assay [15] deals with soybean (Glycine max -- var. Winchester). In words: pre-emergence herbicidal activity, soybean. The following applies: 1 kg/Ha, about fourteen days, read-out: pre-emergence herbicidal activity (% control) SOY. A digest of the protocol: as §2
In assay [16] the test system is velvetleaf (Abutilon theophrasti). In words: post-emergence herbicidal activity, velvetleaf. Particulars: 1 Kg/Ha, about fourteen days, read-out: post-emergence herbicidal activity (% control) ABUTH. A digest of the protocol:
as §1

Assay [17] deals with morningglory (Ipomea lacunosa or Ipomea hederacea). In words: pre-emergence herbicidal activity, morningglory. Particulars: Ipomoea, 1 kg/Ha, about fourteen days, read-out: pre-emergence herbicidal activity (% control) IPOSS. In a few lines: as §2
The subject of assay [18] is soybean (Glycine max -- var. Winchester). In words: post-emergence herbicidal activity, soybean. The following applies: 1 Kg/Ha, about fourteen days, read-out: post-emergence herbicidal activity (% control) SOY. In a few lines: as §1

The structures appear in SMILES notation.

On to `CCCn1c(C(F)(F)F)cc(=O)n(-c2ccc(Cl)c3c2CN(C(C)C)C3=O)c1=O` [Compound 72], for which the activity at 1000 g/ha was 10% in assay [1]; 30% in [2]; 60% in assay [3]; 40% in assay [4]; 50% in [5]; 65% in assay [6]. The activity at 1000 g/ha in assay [7] was determined as 70%; in assay [8] it was 10%; in assay [9], 0%; in [10] it was 10%; in [11], 40%; in assay [12], 10%. The activity at 1000 g/ha in assay [13] stood at 75%; in assay [14], 30%; in assay [15], 20%; in assay [16] it was 20%; in [17], 25%; in assay [18], 60%.
As to `CC(C)N1Cc2c(-n3c(=O)cc(C(F)(F)F)n(Cc4ccccc4)c3=O)ccc(Cl)c2C1=O` [Compound 73], the activity at 1000 g/ha is 75% in [1]; 69% in assay [2]; 75% in assay [3]; 70% in assay [4]; 60% in assay [5]; 100% in assay [6]. For the same compound, the activity at 1000 g/ha in assay [7] turned out to be 90%; in assay [8], 80%; in assay [9], 50%; in assay [10] it was 70%; in assay [11] it was 100%; in [12], 100%. Moreover, the activity at 1000 g/ha stood at 100% in assay [13]; 70% in [14]; 95% in assay [15]; 100% in [16]; 40% in [17]; 90% in assay [18].
As to `CCOC(=O)Cn1c(C(F)(F)F)cc(=O)n(-c2ccc(Cl)c3c2CN(C(C)C)C3=O)c1=O` [Compound 74], the activity at 1000 g/ha worked out at 20% in [1]; 0% in assay [2]; 30% in assay [3]; 30% in assay [4]; 10% in assay [5]; 10% in assay [6]. The activity at 1000 g/ha is 0% in assay [7]; 30% in [8]; 10% in [9]; 30% in [10]; 5% in [11]; 20% in assay [12]. Moreover, the activity at 1000 g/ha was 5% in assay [13]; 10% in assay [14]; 5% in [15]; 20% in assay [16]; 20% in [17]; 40% in assay [18].
Take `C#CCn1c(C(F)(F)F)cc(=O)n(-c2ccc(Cl)c3c2CN(C(C)C)C3=O)c1=O` [Compound 75]: the activity at 1000 g/ha in assay [1] came out at 85%; in assay [2], 100%; in assay [3] it was 50%; in [4], 95%; in [5], 45%; in assay [6] it was 100%. The activity at 1000 g/ha in [7] is 95%; in [8] it was 50%; in assay [9], 70%; in [10], 100%; in assay [11], 100%; in [12], 100%. The activity at 1000 g/ha is 100% in assay [13]; 95% in assay [14]; 100% in assay [15]; 100% in assay [16]; 100% in assay [17]; 60% in assay [18].
